Measured values published in US8293738B2, “Indazole inhibitors of kinase” (Abbott Laboratories, priority 2010, dated 2012).

How the values were obtained:
[1] = biological target: KDR (Homo sapiens, UniProt P35968); assay: KDR HTRF in vitro kinase assay; format: biochemical; design: purified enzyme (His6-KDR 789-1354, MW 63 kD); details: 1 mM ATP, 60 minutes
Experimental: To determine the activity of the various kinases, a homogenous time-resolved fluorescence (HTRF) in vitro kinase assay was used. (Mathis, G., HTRF(R) Technology. J Biomol Screen, 1999. 4(6): p. 309-314; Alfred J. Kolb, Paul V. Kaplita, David J. Hayes, Young-Whan Park, Christine Pernell, John S. Major and Gerard Mathis, Drug Discovery Today, 1998, 3, 333-342.)
For example for KDR, 7 ng/well of purified enzyme (His6-KDR 789-1354, MW 63 kD) was mixed with 0.5 μM N-biotinylated substrate (Biotin-Ahx-AEEEYFFLA-amide (SEQ. ID. 1)), various concentrations of inhibitor in reaction buffer (50 mM HEPES, pH 7.1, mM MgCl2, 2 mM MnCl2, 0.1% BSA and 1 mM DTT, […] final volume), ATP (1 mM final conc.) in a black 384-well plate. After 60 minutes incubation at room temperature, the reaction was quenched by addition of a buffered EDTA solution (final approximate concentrations: 30 mM EDTA, 0.1% BSA, 0.1% Triton X-100 and 0.24M KF) and a solution of revelation agents (to give 0.084 ng/well streptavidin-XL-665 (Cis-Bio) and 6.5 ng/well antiphsophotyrosine mAb PT66-K Europium kryptate) was added to the reaction mixture. The quenched reaction was allowed to stand at room temperature for 3 hours and was then read in a time-resolved fluorescence detector (InVision, Perkin-Elmer) at 620 nm and 665 nm sequentially with excitation. The ratio between the signal of 620 nm and 665 nm was used in the calculation of the IC50.

[2] = biological target: T1, Aurora A (Homo sapiens, UniProt O14965); assay: Aurora A enzyme assay (time-resolved fluorescence, STK substrate-2); format: biochemical; details: 1 mM ATP, 1 hour
T1 sequence (O14965 1-403): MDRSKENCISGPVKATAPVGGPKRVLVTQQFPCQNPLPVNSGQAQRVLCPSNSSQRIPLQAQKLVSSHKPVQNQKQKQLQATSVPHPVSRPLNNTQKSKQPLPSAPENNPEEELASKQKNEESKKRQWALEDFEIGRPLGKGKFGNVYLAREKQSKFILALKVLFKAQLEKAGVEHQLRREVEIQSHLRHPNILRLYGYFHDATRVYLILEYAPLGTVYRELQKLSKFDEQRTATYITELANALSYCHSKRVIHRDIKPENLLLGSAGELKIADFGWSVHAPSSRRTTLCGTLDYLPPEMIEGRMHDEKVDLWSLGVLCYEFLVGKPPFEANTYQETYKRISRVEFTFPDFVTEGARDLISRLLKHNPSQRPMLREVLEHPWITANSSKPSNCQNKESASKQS
Experimental: To determine Aurora A and C activity of representative compounds of the invention, Active Aurora A or C enzyme was incubated in wells of a 384 well plate with biotinylated STK substrate-2 (Upstate), 1 mM ATP, and various concentrations of inhibitors in a Hepes buffer, pH 7.4 containing MgCl2, sodium othrovanadate, and Triton X-100. After 1 hour, the reaction was stopped with EDTA and anti-phospho-STK antibody Europium Cryptate (Upstate) and SA-XL665 (Upstate) were added to detect the phosphopeptide. The amount of phosphorylation was determined by the time-resolved fluorescence ratio of signals at 665 nm and 615 nm. The IC50s were calculated by an exponential fit of the inhibition values with the inhibitor concentrations using Assay Explorer software.

[3] = biological target: T2, Aurora B (Homo sapiens, UniProt Q96GD4); assay: Aurora B enzyme assay (time-resolved fluorescence, histone H3 peptide); format: biochemical; details: 1 mM ATP, 1 hour
T2 construct: Active Aurora B enzyme (recombinant residues 1-344)
T2 sequence (Q96GD4 whole entry, the tested form may be a part): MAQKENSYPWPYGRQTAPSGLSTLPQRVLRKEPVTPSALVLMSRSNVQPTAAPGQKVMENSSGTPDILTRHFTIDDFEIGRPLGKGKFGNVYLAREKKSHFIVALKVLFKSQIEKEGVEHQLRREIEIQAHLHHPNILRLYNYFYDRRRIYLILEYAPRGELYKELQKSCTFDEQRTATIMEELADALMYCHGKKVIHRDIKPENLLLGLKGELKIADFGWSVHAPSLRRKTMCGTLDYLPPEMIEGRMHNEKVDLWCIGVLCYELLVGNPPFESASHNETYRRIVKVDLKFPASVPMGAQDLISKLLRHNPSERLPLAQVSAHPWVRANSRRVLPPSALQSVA
T2 sequence (Q9NQS7 826-918 partner limits assumed): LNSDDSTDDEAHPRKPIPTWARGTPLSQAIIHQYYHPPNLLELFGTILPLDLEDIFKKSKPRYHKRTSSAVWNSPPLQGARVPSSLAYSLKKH
Experimental: To determine Aurora B activity of representative compounds of the invention, Active Aurora B enzyme (recombinant residues 1-344) and INCENP (recombinant GST fusion protein (Upstate)) were incubated in wells of a 384 well plate with biotinylted histone H3 peptide residues 1-21 (Upstate), 1 mM ATP, and various concentrations of inhibitors in a HEPES buffer, pH 7.4 containing MgCl2, sodium othrovanadate, and Triton X-100. After 1 hour, the reaction was stopped with EDTA and anti-phospho-histone H3 Europium Cryptate (Cis-Bio) and SA-APC (Phycolink, Prozyme) were added to detect the phosphopeptide. The amount of phosphorylation was determined by the time-resolved fluorescence ratio of signals at 665 nm and 615 nm. The IC50's were calculated by an exponential fit of the inhibition values with the inhibitor concentrations using Assay Explorer software.

[4] = system: H1299 cells (Human Non-Small Cell Lung Carcinoma); assay: Induction of polyploidy in H1299 cells, high content analysis; format: cell-based; details: NCI-H1299 cells, 48 hours, polyploid = nuclear area >750μ2, read-out: Polyploid HCA IC50
Experimental: To determine the induction of polyploidy in H1299 cells (Human Non-Small Cell Lung Carcinoma), NCI-H1299 were seeded (4K/well) into 96-well culture plates (tissue culture grade, black, flat-clear bottom) and incubated overnight to produce cell-to-plate adherance Inhibitors at varying concentrations were added into duplicate wells containing cells and culture media (RPMI 1640, 10% fetal calf serum) and incubated at 37 C for 48 hours. The plates were then washed with PBS and the adherent cells fixed by incubating with 3% formalin for 1 hour. After washing four times with PBS, the cells were then stained with Hoechst and subjected to fluorescent (3601/460e) microscopic high content analysis to determine the effect of inhibitors on nuclear size. Polyploid cells (>4N) were defined as those having nuclear area >750μ2. […]

KDR, sequence (P35968 789-1354): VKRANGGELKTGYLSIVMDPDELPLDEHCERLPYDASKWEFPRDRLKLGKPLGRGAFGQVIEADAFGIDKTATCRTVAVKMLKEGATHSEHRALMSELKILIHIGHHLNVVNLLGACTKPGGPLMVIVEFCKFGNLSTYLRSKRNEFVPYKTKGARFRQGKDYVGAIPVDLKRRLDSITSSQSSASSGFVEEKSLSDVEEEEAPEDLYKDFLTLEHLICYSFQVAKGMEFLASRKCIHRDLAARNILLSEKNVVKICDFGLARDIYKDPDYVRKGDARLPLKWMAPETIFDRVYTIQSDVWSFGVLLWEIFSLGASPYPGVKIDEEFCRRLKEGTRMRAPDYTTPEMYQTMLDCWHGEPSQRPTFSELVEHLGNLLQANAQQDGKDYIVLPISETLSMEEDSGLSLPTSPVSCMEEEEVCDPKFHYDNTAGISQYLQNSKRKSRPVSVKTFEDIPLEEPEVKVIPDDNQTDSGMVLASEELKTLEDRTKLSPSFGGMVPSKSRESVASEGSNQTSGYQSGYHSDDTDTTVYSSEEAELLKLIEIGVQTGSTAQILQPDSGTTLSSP

Compound | IC50 [1] | IC50 [2] | IC50 [3] | IC50 [4]
Cn1cc(-c2n[nH]c3cc(-c4ccc(CNC(=O)Nc5cccc(F)c5)cc4)ccc23)cn1 [Example 24, N-(3-fluorophenyl)-N′-{4-[3-(1-methyl-1H-pyrazol-4-yl)-1H-indazol-6-yl]benzyl}urea] | > 12500 nM | > 12500 nM | 1030 nM | –
CC(C)(O)Cn1cc(-c2n[nH]c3cc(-c4ccc(NC(=O)Nc5cccc(F)c5)cc4)ccc23)cn1 [Example 15, N-(3-fluorophenyl)-N′-(4-{3-[1-(2-hydroxy-2-methylpropyl)-1H-pyrazol-4-yl]-1H-indazol-6-yl}phenyl)urea] | 6690 nM | > 12500 nM | 142 nM | –
Cn1cc(-c2n[nH]c3cc(-c4ccc(CNC(=O)c5cccc(F)c5)cc4)ccc23)cn1 [Example 31, 3-fluoro-N-{4-[3-(1-methyl-1H-pyrazol-4-yl)-1H-indazol-6-yl]benzyl}benzamide] | 1790 nM | 5210 nM | 142 nM | –
Cn1cc(-c2n[nH]c3cc(-c4ccc(NC(=O)Nc5ccc(OC(F)(F)F)cc5)cc4)ccc23)cn1 [Example 28, N-{4-[3-(1-methyl-1H-pyrazol-4-yl)-1H-indazol-6-yl]phenyl}-N′-[4-(trifluoromethoxy)phenyl]urea] | 38 nM | > 12500 nM | 871 nM | –
Cn1cc(-c2n[nH]c3cc(-c4cccc(CNC(=O)Nc5cccc(F)c5)c4)ccc23)cn1 [Example 29, N-(3-fluorophenyl)-N′-{3-[3-(1-methyl-1H-pyrazol-4-yl)-1H-indazol-6-yl]benzyl}urea] | 137 nM | 3340 nM | 25 nM | 113 nM
Cc1cccc(NC(=O)Nc2ccc(-c3ccc4c(-c5cc6ccccc6[nH]5)n[nH]c4c3)cc2)c1 [Example 36, N-{4-[3-(1H-indol-2-yl)-1H-indazol-6-yl]phenyl}-N′-(3-methylphenyl)urea] | 303 nM | > 12500 nM | > 12500 nM | –
Cc1cccc(NC(=O)Nc2cccc(-c3ccc4c(-c5cccnc5)n[nH]c4c3)c2)c1 [Example 34, N-(3-methylphenyl)-N′-[3-(3-pyridin-3-yl-1H-indazol-6-yl)phenyl]urea] | 278 nM | > 12500 nM | > 12500 nM | –
Cc1cccc(NC(=O)Nc2ccc(-c3ccc4c(-c5ccsc5)n[nH]c4c3)cc2)c1 [Example 7, N-(3-methylphenyl)-N′-[4-(3-thien-3-yl-1H-indazol-6-yl)phenyl]urea] | 12300 nM | > 12500 nM | > 12500 nM | –
Cc1cccc(NC(=O)Nc2ccc(-c3ccc4c(-c5cnn(CCN6CCOCC6)c5)n[nH]c4c3)cc2)c1 [Example 5, N-(3-methylphenyl)-N′-(4-{3-[1-(2-morpholin-4-ylethyl)-1H-pyrazol-4-yl]-1H-indazol-6-yl}phenyl)urea] | 31.7 nM | > 12500 nM | 194 nM | –
Cn1cc(-c2n[nH]c3cc(-c4ccc(NC(=O)Nc5cccc(C(F)(F)F)c5)cc4)ccc23)cn1 [Example 18, N-{4-[3-(1-methyl-1H-pyrazol-4-yl)-1H-indazol-6-yl]phenyl}-N′-[3-(trifluoromethyl)phenyl]urea] | 23.7 nM | > 12500 nM | 156 nM | –
Cc1cccc(NC(=O)Nc2ccc(-c3ccc4c(-c5cccnc5)n[nH]c4c3)cc2)c1 [Example 33, N-(3-methylphenyl)-N′-[4-(3-pyridin-3-yl-1H-indazol-6-yl)phenyl]urea] | 584 nM | > 12500 nM | 120 nM | –
Cn1cc(-c2n[nH]c3cc(-c4ccc(NC(=O)Nc5cccc(OC(F)(F)F)c5)cc4)ccc23)cn1 [Example 25, N-{4-[3-(1-methyl-1H-pyrazol-4-yl)-1H-indazol-6-yl]phenyl}-N′-[3-(trifluoromethoxy)phenyl]urea] | 30.2 nM | > 12500 nM | 493 nM | –
Cn1cc(-c2n[nH]c3cc(-c4ccc(NC(=O)Nc5ccccc5OC(F)(F)F)cc4)ccc23)cn1 [Example 27, N-{4-[3-(1-methyl-1H-pyrazol-4-yl)-1H-indazol-6-yl]phenyl}-N′-[2-(trifluoromethoxy)phenyl]urea] | 97.6 nM | > 12500 nM | 773 nM | –
CCCn1cc(-c2n[nH]c3cc(-c4ccc(NC(=O)Nc5cccc(F)c5)cc4)ccc23)cn1 [Example 13, N-(3-fluorophenyl)-N′-{4-[3-(1-propyl-1H-pyrazol-4-yl)-1H-indazol-6-yl]phenyl}urea] | 217 nM | 10900 nM | 86.4 nM | –
Cc1cccc(NC(=O)Nc2ccc(-c3ccc4c(-c5ccccc5)n[nH]c4c3)cc2)c1 [Example 32, N-(3-methylphenyl)-N′-[4-(3-phenyl-1H-indazol-6-yl)phenyl]urea] | 3610 nM | > 12500 nM | 1920 nM | –
O=C(Nc1ccc(-c2ccc3c(-c4cnn(CCO)c4)n[nH]c3c2)cc1)Nc1cccc(C(F)(F)F)c1 [Example 11, N-(4-{3-[1-(2-hydroxyethyl)-1H-pyrazol-4-yl]-1H-indazol-6-yl}phenyl)-N′-[3-(trifluoromethyl)phenyl]urea] | 20.7 nM | > 12500 nM | 136 nM | –
Cc1cccc(NC(=O)Nc2ccc(-c3ccc4c(-c5cscn5)n[nH]c4c3)cc2)c1 [Example 35, N-(3-methylphenyl)-N′-{4-[3-(1,3-thiazol-4-yl)-1H-indazol-6-yl]phenyl}urea] | 558 nM | > 12500 nM | 569 nM | –
Cc1cccc(NC(=O)Nc2cccc(-c3ccc4c(-c5cnn(C)c5)n[nH]c4c3)c2)c1 [Example 17, N-(3-methylphenyl)-N′-{3-[3-(1-methyl-1H-pyrazol-4-yl)-1H-indazol-6-yl]phenyl}urea] | 48.8 nM | > 12500 nM | 1320 nM | –
Cc1cccc(NC(=O)Nc2ccc(-c3ccc4c(-c5ccc[nH]5)n[nH]c4c3)cc2)c1 [Example 4, N-(3-methylphenyl)-N′-{4-[3-(1H-pyrrol-2-yl)-1H-indazol-6-yl]phenyl}urea] | 291 nM | 1460 nM | 207 nM | –
Cn1nccc1-c1n[nH]c2cc(-c3ccc(NC(=O)Nc4cccc(F)c4)cc3)ccc12 [Example 14, N-(3-fluorophenyl)-N′-{4-[3-(1-methyl-1H-pyrazol-5-yl)-1H-indazol-6-yl]phenyl}urea] | > 12500 nM | > 12500 nM | > 12500 nM | –
